Calls of active or inactive are those of the source. The calls are words filed in the database; no cut-off is given here.
How the values were obtained:
[1] = Protein binding in rat brain at 10 mg/kg, po; assay type: ADME, organism-based; parameters: dose 10 mg/kg, route oral; details: read-out: PPB (converted)
[2] = target: T1, 5-hydroxytryptamine receptor 2B (Homo sapiens, UniProt P41595); experiment: Agonist activity at human recombinant 5HT2B receptor expressed in CHOK1 cells at 0.0001 to 10 uM by FLIPR assay; assay type: functional, cell-based; details: CHO-K1
T1 sequence (P41595 whole entry): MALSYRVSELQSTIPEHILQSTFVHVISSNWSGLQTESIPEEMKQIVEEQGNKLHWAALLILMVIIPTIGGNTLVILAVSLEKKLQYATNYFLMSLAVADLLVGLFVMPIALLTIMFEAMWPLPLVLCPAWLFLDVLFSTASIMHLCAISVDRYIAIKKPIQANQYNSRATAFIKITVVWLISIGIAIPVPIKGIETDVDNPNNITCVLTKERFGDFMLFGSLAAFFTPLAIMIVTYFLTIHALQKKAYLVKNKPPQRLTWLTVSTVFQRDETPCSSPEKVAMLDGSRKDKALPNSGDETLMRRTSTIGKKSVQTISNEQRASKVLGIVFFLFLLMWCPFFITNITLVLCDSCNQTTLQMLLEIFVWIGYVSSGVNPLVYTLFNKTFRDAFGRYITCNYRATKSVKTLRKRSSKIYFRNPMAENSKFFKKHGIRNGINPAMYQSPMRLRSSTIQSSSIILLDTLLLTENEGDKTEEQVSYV

[3] = Ratio of drug level in brain to plasma in rat at 10 mg/kg, po; assay type: ADME, organism-based; parameters: dose 10 mg/kg, route oral; details: read-out: BPR
[4] = target: 5-hydroxytryptamine receptor 1D (Homo sapiens, UniProt P28221); experiment: Displacement of [3H]LSD from human cloned 5HT1D receptor expressed in human HeLa cells; assay type: cell-based
5-hydroxytryptamine receptor 1D, sequence (P28221 whole entry): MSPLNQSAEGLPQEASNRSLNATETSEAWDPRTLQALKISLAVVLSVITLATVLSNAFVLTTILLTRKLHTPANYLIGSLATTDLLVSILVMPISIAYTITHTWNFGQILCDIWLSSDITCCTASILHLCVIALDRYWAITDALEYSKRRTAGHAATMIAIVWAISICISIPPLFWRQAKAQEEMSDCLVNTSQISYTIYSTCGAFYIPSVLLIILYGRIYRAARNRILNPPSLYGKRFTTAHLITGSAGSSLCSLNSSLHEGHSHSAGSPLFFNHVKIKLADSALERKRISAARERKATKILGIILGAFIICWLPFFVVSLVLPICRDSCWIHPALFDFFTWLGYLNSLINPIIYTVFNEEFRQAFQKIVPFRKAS

[5] = Plasma protein binding in rat at 10 mg/kg, po; assay type: ADME, organism-based; parameters: dose 10 mg/kg, route oral; details: read-out: PPB (converted)
[6] = target: T2, 5-hydroxytryptamine receptor 6 (Homo sapiens, UniProt P50406); experiment: Antagonist activity at human cloned 5HT6 receptor expressed in human HeLa cells by cyclase assay relative to control; assay type: functional, cell-based
T2 sequence (P50406 whole entry): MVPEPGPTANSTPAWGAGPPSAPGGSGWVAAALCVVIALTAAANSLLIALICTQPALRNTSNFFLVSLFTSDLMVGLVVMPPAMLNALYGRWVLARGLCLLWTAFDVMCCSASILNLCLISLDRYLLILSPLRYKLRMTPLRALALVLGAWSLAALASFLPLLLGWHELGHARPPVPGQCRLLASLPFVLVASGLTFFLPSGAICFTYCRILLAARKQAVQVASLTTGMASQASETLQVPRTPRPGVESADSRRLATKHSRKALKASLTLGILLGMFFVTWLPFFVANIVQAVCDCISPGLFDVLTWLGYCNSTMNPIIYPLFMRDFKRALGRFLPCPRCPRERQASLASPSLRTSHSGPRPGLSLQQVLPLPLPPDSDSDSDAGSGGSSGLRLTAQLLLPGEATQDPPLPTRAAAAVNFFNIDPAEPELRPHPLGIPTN

Rattus norvegicus [7] = experiment: Induction of acetylcholine release in hippocampus of rat at 10 mg/kg, po; assay type: functional, organism-based; parameters: dose 10 mg/kg
[8] = target: T3, Alpha-2A adrenergic receptor (Homo sapiens, UniProt P08913); experiment: Displacement of [3H]LSD from human cloned alpha2A adrenergic receptor expressed in human HeLa cells; assay type: cell-based
T3 sequence (P08913 whole entry): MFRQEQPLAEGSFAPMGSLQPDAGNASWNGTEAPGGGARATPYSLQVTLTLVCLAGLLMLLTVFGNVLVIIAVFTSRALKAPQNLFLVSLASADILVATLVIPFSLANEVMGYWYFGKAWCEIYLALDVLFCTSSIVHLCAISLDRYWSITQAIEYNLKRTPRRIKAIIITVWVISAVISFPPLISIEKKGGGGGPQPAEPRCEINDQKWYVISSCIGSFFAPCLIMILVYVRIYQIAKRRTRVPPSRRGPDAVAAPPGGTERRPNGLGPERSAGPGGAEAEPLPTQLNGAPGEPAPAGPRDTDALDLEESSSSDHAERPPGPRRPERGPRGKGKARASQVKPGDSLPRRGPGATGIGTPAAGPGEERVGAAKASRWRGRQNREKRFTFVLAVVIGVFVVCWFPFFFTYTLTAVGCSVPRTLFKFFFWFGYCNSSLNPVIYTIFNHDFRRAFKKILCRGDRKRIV

Rattus norvegicus [9] = experiment: Enhancement of memory in po dosed rat measured after 48 hrs delay by novel object recognition test; assay type: functional, organism-based
[10] = Ratio of drug level in brain to plasma in dog at 10 mg/kg, po; assay type: ADME, organism-based, Canis lupus familiaris; parameters: dose 10 mg/kg, route oral; details: read-out: BPR
[11] = target: 5-hydroxytryptamine receptor 1B (Homo sapiens, UniProt P28222); experiment: Displacement of [3H]LSD from human cloned 5HT1B receptor expressed in human HeLa cells; assay type: cell-based
5-hydroxytryptamine receptor 1B, sequence (P28222 whole entry): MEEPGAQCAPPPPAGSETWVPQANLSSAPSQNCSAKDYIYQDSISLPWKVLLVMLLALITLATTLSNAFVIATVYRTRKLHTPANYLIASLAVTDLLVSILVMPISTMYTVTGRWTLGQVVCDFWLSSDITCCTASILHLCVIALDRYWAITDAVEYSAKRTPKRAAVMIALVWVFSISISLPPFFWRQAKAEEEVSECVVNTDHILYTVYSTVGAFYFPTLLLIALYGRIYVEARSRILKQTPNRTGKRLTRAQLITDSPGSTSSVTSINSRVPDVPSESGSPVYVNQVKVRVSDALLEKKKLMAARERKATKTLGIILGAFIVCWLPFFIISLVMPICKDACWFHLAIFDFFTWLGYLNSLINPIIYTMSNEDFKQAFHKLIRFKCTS

[12] = Oral bioavailability in rat at 10 mg/kg; assay type: ADME, organism-based; details: in vivo
Rattus norvegicus [13] = experiment: Induction of glutamate release in hippocampus of rat at 10 mg/kg, po; assay type: functional, organism-based; parameters: dose 10 mg/kg
D(2) dopamine receptor = D(2) dopamine receptor (Homo sapiens, UniProt P14416); experiment: Displacement of [3H]LSD from human cloned dopamine D2 receptor expressed in human HeLa cells; assay type: cell-based
D(2) dopamine receptor, sequence (P14416 whole entry): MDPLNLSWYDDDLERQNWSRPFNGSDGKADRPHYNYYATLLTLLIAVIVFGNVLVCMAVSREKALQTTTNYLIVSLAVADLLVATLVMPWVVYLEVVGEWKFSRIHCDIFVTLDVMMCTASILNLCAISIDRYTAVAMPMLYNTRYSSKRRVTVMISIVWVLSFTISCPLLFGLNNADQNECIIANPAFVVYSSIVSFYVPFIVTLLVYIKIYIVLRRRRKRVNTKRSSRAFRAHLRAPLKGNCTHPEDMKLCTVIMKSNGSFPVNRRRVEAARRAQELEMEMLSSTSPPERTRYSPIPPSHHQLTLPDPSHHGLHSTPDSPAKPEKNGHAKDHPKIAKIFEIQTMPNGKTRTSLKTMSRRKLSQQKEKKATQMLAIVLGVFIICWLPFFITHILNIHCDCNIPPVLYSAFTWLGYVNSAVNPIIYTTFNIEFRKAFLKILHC

[14] = target: T4, 5-hydroxytryptamine receptor 1A (Homo sapiens, UniProt P08908); experiment: Displacement of [3H]LSD from human cloned 5HT1A receptor expressed in human HeLa cells; assay type: cell-based
T4 sequence (P08908 whole entry): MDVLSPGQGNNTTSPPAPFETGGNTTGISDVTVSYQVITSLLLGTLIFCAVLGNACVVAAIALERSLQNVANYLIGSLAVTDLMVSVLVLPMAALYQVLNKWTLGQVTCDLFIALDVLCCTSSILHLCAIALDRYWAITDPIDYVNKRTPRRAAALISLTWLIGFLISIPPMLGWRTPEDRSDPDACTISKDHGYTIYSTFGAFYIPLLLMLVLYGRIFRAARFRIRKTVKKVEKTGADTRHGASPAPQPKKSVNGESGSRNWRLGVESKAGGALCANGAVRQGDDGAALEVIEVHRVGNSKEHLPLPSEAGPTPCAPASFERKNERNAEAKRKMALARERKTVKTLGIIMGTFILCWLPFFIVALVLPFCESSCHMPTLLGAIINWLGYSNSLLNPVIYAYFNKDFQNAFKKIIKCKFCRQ

[15] = Solubility of the compound in water; assay type: physicochemical
[16] = target: T2, 5-hydroxytryptamine receptor 6; experiment: Antagonist activity at human cloned 5HT6 receptor expressed in human HeLa cells by cyclase assay; assay type: functional, cell-based
[17] = target: T1, 5-hydroxytryptamine receptor 2B; experiment: Displacement of [3H]LSD from human cloned 5HT2B receptor expressed in human HeLa cells; assay type: cell-based
[18] = Oral bioavailability in dog at 10 mg/kg; assay type: ADME, organism-based, Canis lupus familiaris; details: in vivo
[19] = target: T5, 5-hydroxytryptamine receptor 2C (Homo sapiens, UniProt P28335); experiment: Displacement of [3H]LSD from human cloned 5HT2C receptor expressed in human HeLa cells; assay type: cell-based
T5 sequence (P28335 whole entry): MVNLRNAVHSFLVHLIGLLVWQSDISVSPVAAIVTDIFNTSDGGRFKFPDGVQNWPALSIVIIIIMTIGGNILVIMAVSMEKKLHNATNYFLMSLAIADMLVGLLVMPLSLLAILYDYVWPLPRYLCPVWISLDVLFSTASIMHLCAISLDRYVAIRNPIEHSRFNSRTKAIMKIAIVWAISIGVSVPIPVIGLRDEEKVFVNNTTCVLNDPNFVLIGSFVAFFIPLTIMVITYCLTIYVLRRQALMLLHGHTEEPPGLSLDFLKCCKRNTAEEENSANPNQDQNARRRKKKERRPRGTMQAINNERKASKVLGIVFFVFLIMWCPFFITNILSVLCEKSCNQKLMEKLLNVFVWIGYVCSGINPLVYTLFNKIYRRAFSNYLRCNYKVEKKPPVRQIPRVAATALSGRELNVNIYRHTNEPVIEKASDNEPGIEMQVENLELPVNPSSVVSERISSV

Rattus norvegicus [20] = experiment: Inhibition of scopolamine-induced memory deficit in po dosed rat by novel object recognition test; assay type: functional; details: read-out: MED
Rattus norvegicus [21] = experiment: Enhancement of memory in po dosed rat assessed as minimum effective dose measured after 48 hrs delay by novel object recognition test; assay type: functional; details: read-out: MED
[22] = target: 5-hydroxytryptamine receptor 7 (Homo sapiens, UniProt P34969); experiment: Displacement of [3H]LSD from human cloned 5HT7 receptor expressed in human HeLa cells; assay type: cell-based
5-hydroxytryptamine receptor 7, sequence (P34969 whole entry): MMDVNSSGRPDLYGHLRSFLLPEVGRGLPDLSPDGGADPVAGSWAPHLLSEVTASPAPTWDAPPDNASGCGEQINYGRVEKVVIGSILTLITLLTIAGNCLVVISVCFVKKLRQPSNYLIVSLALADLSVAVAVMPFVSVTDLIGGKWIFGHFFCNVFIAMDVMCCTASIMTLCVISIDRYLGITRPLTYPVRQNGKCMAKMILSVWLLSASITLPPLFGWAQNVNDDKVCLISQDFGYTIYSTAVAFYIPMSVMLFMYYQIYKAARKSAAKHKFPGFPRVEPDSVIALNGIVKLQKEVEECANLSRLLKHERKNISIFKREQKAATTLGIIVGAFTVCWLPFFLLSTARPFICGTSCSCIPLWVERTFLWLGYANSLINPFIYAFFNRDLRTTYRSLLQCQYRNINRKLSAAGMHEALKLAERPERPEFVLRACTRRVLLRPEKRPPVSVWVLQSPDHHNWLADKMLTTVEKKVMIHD

SMILES: O=S(=O)(c1cccc2ccccc12)c1n[nH]c2ccc(N3CCNCC3)cc12
- fraction unbound [1]: 0.2
- Activity [2]: inactive
- Kp [3]: < 0.2
- Ki [4]: > 5 µM
- fraction unbound [5]: 0.2
- Imax [6]: 100%
- Activity (Rattus norvegicus [7]): Active
- Ki [8]: > 5 µM
- Activity (Rattus norvegicus [9]): Dose-dependent effect
- Kp [10]: < 0.2
- Ki [11]: > 5 µM
- bioavailability [12]: > 20%
- Activity (Rattus norvegicus [13]): Active
- Ki (D(2) dopamine receptor): > 5 µM
- Ki [14]: 0.573 µM
- solubility [15]: > 0.1 mg/mL
- IC50 [16]: 0.013 µM
- Ki [17]: 0.236 µM
- bioavailability [18]: > 20%
- Ki [19]: > 5 µM
- minimal effective dose (Rattus norvegicus [20]): 0.03 mg/kg
- minimal effective dose (Rattus norvegicus [21]): 3 mg/kg
- Ki [22]: 1.56 µM
